Earlier results on two compounds are cited in US20100255088A1 (priority 2009, published 2010).

Where two headings read alike, the source gives them in different places.

Experiment in series [1]: not given
This is another data set of the same source.

Another series deals with H+/K+ ATPase (Homo sapiens, UniProt P20648). Particulars: Life Sciences 66(8), 2000, 663-673.
The subject of another series is platelet aggregation. Particulars: aspirin resistance group of patients.
In series [2] the test system is yeast and primitives animals. Particulars: high resveratrol levels artificially maintained.
The subject of series [3] is isolated pig retinal artery. Particulars: through the NO system and prostacycline secretion.

Sequence of H+/K+ ATPase (P20648 whole entry): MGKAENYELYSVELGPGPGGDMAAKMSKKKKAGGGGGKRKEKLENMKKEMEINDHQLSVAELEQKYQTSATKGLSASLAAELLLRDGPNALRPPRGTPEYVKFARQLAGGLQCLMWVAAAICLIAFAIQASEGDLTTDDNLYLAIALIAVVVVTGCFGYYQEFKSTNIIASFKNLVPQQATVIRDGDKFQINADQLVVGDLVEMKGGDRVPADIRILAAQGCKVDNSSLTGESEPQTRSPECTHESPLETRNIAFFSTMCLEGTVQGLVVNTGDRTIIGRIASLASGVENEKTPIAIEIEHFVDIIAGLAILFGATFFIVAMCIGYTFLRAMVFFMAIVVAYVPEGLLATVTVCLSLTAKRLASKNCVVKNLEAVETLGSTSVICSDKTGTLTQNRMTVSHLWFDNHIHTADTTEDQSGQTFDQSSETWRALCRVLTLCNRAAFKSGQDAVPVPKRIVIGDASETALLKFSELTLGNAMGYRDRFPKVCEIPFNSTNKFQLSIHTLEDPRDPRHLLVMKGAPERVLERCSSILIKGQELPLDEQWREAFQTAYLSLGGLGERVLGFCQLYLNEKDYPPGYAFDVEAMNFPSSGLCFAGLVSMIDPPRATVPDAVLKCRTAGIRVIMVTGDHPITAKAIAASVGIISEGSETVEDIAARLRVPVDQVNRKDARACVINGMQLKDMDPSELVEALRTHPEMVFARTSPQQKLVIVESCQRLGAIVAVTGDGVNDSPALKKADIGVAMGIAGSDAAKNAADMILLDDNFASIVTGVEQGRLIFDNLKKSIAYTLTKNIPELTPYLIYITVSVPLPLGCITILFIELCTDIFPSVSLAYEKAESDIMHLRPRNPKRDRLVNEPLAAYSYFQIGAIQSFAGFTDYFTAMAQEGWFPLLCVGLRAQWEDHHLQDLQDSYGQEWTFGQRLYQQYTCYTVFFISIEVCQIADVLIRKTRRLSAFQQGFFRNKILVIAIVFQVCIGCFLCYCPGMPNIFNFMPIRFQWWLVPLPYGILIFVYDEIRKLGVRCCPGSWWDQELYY
Sequence of H+/K+ ATPase (P51164 whole entry partner): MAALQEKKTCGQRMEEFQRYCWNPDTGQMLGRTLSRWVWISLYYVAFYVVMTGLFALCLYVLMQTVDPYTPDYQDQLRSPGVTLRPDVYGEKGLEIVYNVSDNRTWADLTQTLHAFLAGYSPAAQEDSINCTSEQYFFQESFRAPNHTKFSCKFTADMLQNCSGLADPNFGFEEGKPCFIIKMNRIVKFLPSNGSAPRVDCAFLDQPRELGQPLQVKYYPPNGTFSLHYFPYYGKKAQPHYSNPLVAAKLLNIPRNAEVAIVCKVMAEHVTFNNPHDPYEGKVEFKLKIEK

Regarding `CC(=O)Oc1ccccc1C(=O)O` [aspirin, acetyl salicylic acid], the “patients with reduced mortality” value reads like this: (at least 325 mg daily for ten years) 50%; (higher doses for ten years) 75%. In addition, the “incidence of various human carcinomas” value (full dose aspirin for ten years and above) was “halved”. Further, in series [1], the water solubility entry was “not water-soluble”.

As to `Oc1ccc(C=Cc2cc(O)cc(O)c2)cc1` [resveratrol], on H+/K+ ATPase, the hydrochloric acid production entry is “reducing significantly the hydrochloric acid production”. For the same compound, the platelet aggregation inhibition entry in the series on platelet aggregation is listed as “optimal platelet aggregation inhibition”. For the same compound, the life span entry in series [2] is “doubling the life span”. The vasodilating effect result in series [3] was “strong vasodilating effect”.
